Source: US8518912B2, “Phosphonic acid derivates and their use as P2Y12 receptor antagonists” (Actelion Pharmaceuticals Ltd., priority 2008, dated 2013)

The compounds below were run against T1, human P2Y12 receptor (Homo sapiens, UniProt Q9H244) (assay: P2Y12 receptor binding assay). Settings: CHO cells with recombinant human P2Y12 receptor; tritium-labeled 2-methyl-S-ADP; 2 hours at RT.
T1 construct: expressed in transfected cells; host or cells: Chinese Hamster Ovary (CHO) cells
Procedure: Chinese Hamster Ovary (CHO) cells with recombinant expression of the human P2Y12 receptor were cultured in 24 well cell-culture plates. Cells were washed three times with binding buffer (50 mM Tris pH 7.4, 100 mM NaCl, […], 0.5% BSA). The cells were then incubated with 0.5 ml per well binding buffer containing tritium-labeled 2-methyl-thio-adenosine 5′-diphosphate (2-methyl-S-ADP) (between 100,000 and 300,000 dpm per well) and various concentrations of test compounds. After incubation at RT for 2 hours, cells were washed three times with binding buffer. Then, cells were solubilized by addition of 0.5 ml solubilization buffer (SDS, NaOH, EDTA). The content of each well was then transferred into beta-counter vials and 2.0 ml of Ultima Gold Scintillation liquid was added.

T1 sequence (Q9H244 whole entry): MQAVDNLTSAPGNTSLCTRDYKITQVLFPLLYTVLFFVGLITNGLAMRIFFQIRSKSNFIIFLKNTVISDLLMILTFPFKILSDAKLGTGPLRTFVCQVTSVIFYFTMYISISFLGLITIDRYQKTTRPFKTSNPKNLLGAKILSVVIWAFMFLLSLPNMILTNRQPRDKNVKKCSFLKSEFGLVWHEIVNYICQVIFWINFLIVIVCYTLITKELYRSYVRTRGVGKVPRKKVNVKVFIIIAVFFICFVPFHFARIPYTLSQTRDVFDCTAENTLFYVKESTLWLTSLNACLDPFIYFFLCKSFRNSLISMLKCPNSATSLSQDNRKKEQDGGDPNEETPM

Question: For `CCCCOC(=O)N1CCN(C(=O)C(NC(=O)c2cc(N3CC[C@H](OC)C3)nc(-c3ccccc3)n2)c2cccc(P(=O)(O)O)c2)CC1` (stereo partly drawn) [Example 71, 4-[2-{[6-((S)-3-Methoxy-pyrrolidin-1-yl)-2-phenyl-pyrimidine-4-carbonyl]-amino}-2-(3-phosphono-phenyl)-acetyl]-piperazine-1-carboxylic acid butyl ester], which IC50 is on record?
Answer: 4.5 nM

Question: How did the IC50 turn out when `CCCCOC(=O)N1CCN(C(=O)[C@H](CCP(=O)(O)O)NC(=O)c2cc(-n3cccn3)nc(-c3ccccc3)n2)CC1` [Example 7, 4-{(S)-2-[(2-phenyl-6-pyrazol-1-yl-pyrimidine-4-carbonyl)-amino]-4-phosphono-butyryl}-piperazine-1-carboxylic acid butyl ester] was run?
Answer: 3.2 nM

Question: For `CCCCOC(=O)N1CCN(C(=O)[C@H](CP(=O)(NC(C)(C)C(=O)OCC)NC(C)(C)C(=O)OCC)NC(=O)c2cc(N3CC[C@H](OC)C3)nc(-c3ccccc3)n2)CC1` [Example 92, N,N′-Bis-(2-ethoxycarbonyl-prop-2-yl)-2-{(R)-[6-((S)-3-methoxy-pyrrolidin-1-yl)-2-phenyl-pyrimidine-4-carbonyl]-amino}-3-oxo-3-(4-butoxy-carbonyl-piperazin-1-yl)-propyl-phosphonic acid diamide], which IC50 is on record?
Answer: 42 nM

Question: For `CCCCOC(=O)N1CCN(C(=O)C(NC(=O)c2cc(N3CC[C@H](OC)C3)nc(-c3ccccc3)n2)P(=O)(O)O)CC1` (stereo partly drawn) [Example 56, 4-(2-{[6-((S)-3-methoxy-pyrrolidin-1-yl)-2-phenyl-pyrimidine-4-carbonyl]-amino}-2-phosphono-acetyl)-piperazine-1-carboxylic acid butyl ester], which IC50 is on record?
Answer: 162 nM

Question: For `CCCCOC(=O)N1CCN(C(=O)[C@H](CP(=O)(OCOC(=O)OC)OCOC(=O)OC)NC(=O)c2cc(N3CC[C@H](OC)C3)nc(-c3ccccc3)n2)CC1` [Example 93, 4-((R)-3-[Bis-(methoxycarbonyloxy-methoxy)-phosphoryl]-2-{[6-((S)-3-methoxy-pyrrolidin-1-yl)-2-phenyl-pyrimidine-4-carbonyl]-amino}-propionyl)-piperazine-1-carboxylic acid butyl ester], which IC50 is on record?
Answer: 3.5 nM

Question: How did the IC50 turn out when `CCCCOC(=O)N1CCN(C(=O)[C@H](CP(=O)(OCOC(=O)CCC)OCOC(=O)CCC)NC(=O)c2cc(N3CC[C@H](OC)C3)nc(-c3ccccc3)n2)CC1` [Example 78, 4-((R)-3-(Bis-butyryloxymethoxy-phosphoryl)-2-{[6-((S)-3-methoxy-pyrrolidin-1-yl)-2-phenyl-pyrimidine-4-carbonyl]-amino}-propionyl)-piperazine-1-carboxylic acid butyl ester] was run?
Answer: 7 nM

Question: `CCCC(=O)OCOP(=O)(OCOC(=O)CCC)c1ccc(C[C@H](NC(=O)c2cc(N3CC[C@H](OC)C3)nc(-c3ccccc3)n2)C(=O)N2CCN(C(=O)OCC)CC2)cc1` [Example 124, 4-((S)-3-[4-(Bis-(butyryloxy-methoxy)-phosphoryl)-phenyl]-2-{[6-((S)-3-methoxy-pyrrolidin-1-yl)-2-phenyl-pyrimidine-4-carbonyl]-amino}-propionyl)-piperazine-1-carboxylic acid ethyl ester] was tested. Which IC50 did it give?
Answer: 36 nM

Question: Which IC50 does the source give for `CCCCOC(=O)N1CCN(C(=O)[C@@H](CCCP(=O)(O)O)NC(=O)c2cc(N3CC[C@H](OC)C3)nc(-c3ccccc3)n2)CC1` [Example 63, 4-((R)-2-{[6-((S)-3-Methoxy-pyrrolidin-1-yl)-2-phenyl-pyrimidine-4-carbonyl]-amino}-5-phosphono-pentanoyl)-piperazine-1-carboxylic acid butyl ester] here?
Answer: 69 nM

Question: How did the IC50 turn out when `CCCCOC(=O)N1CCN(C(=O)[C@H](CP(=O)(OCc2oc(=O)oc2C)OCc2oc(=O)oc2C)NC(=O)c2cc(N3CC[C@H](OC)C3)nc(-c3ccccc3)n2)CC1` [Example 101, 4-((R)-3-[Bis-(5-methyl-2-oxo-[1,3]dioxol-4-ylmethoxy)-phosphoryl]-2-{[6-((S)-3-methoxy-pyrrolidin-1-yl)-2-phenyl-pyrimidine-4-carbonyl]-amino}-propionyl)-piperazine-1-carboxylic acid butyl ester] was run?
Answer: 3.2 nM

Question: `CCCCOC(=O)N1CCN(C(=O)[C@H](CP2(=O)Nc3ccccc3CO2)NC(=O)c2cc(N3CC[C@H](OC)C3)nc(-c3ccccc3)n2)CC1` (mixture of isomers) [Example 103, 4-[(R)-2-{[6-((S)-3-Methoxy-pyrrolidin-1-yl)-2-phenyl-pyrimidine-4-carbonyl]-amino}-3-(2-oxo-1,4-dihydro-2H-2λ^5-benzo[d][1,3,2]oxazaphosphinin-2-yl)-propionyl]-piperazine-1-carboxylic acid butyl ester] was tested. Which IC50 did it give?
Answer: 3.1 nM

Question: How did the IC50 turn out when `CCOC(=O)N1CCN(C(=O)[C@H](CP(=O)(O)O)NC(=O)c2cc(N3CC[C@H](OC)C3)nc(-c3ccccc3)n2)CC1C` (stereo partly drawn) [Example 38, 4-((R)-2-{[6-((S)-3-methoxy-pyrrolidin-1-yl)-2-phenyl-pyrimidine-4-carbonyl]-amino}-3-phosphono-propionyl)-2-methyl-piperazine-1-carboxylic acid ethyl ester] was run?
Answer: 61 nM

Question: With `CCCCOC(=O)N1CCN(C(=O)[C@H](CCP(=O)(O)O)NC(=O)c2cc(N3CC[C@H](OC)C3)nc(-c3cccc(F)c3)n2)CC1` [Example 21, 4-((S)-2-{[2-(3-fluoro-phenyl)-6-((S)-3-methoxy-pyrrolidin-1-yl)-pyrimidine-4-carbonyl]-amino}-4-phosphono-butyryl)-piperazine-1-carboxylic acid butyl ester] as the compound, how does the IC50 read?
Answer: 78 nM

Question: For `CCCCOC(=O)N1CCN(C(=O)[C@H](CCP(=O)(OCOC(=O)C(C)(C)C)OCOC(=O)C(C)(C)C)NC(=O)c2cc(N3CC[C@H](OC)C3)nc(-c3ccccc3)n2)CC1` [Example 48, 4-((S)-4-[bis-(2,2-dimethyl-propionyloxymethoxy)-phosphoryl]-2-{[6-((S)-3-methoxy-pyrrolidin-1-yl)-2-phenyl-pyrimidine-4-carbonyl]-amino}-butyryl)-piperazine-1-carboxylic acid butyl ester], which IC50 is on record?
Answer: 49 nM

Question: For `CCCCOC(=O)N1CCN(C(=O)[C@H](CP2(=O)OCc3cccc(C)c3O2)NC(=O)c2cc(N3CC[C@H](OC)C3)nc(-c3ccccc3)n2)CC1` (mixture of isomers) [Example 110, 4-[(R)-2-{[6-((S)-3-Methoxy-pyrrolidin-1-yl)-2-phenyl-pyrimidine-4-carbonyl]-amino}-3-(8-methyl-2-oxo-4H-2λ^5-benzo[1,3,2]dioxaphosphinin-2-yl)-propionyl]-piperazine-1-carboxylic acid butyl ester], which IC50 is on record?
Answer: 2.8 nM

Question: With `CCOC(=O)N1CCN(C(=O)[C@H](Cc2cccc(P(=O)(O)O)c2)NC(=O)c2cc(N3CC[C@H](OC)C3)nc(-c3ccccc3)n2)CC1` [Example 67, 4-[(S)-2-{[6-((S)-3-Methoxy-pyrrolidin-1-yl)-2-phenyl-pyrimidine-4-carbonyl]-amino}-3-(3-phosphono-phenyl)-propionyl]-piperazine-1-carboxylic acid ethyl ester] as the compound, how does the IC50 read?
Answer: 13 nM

Question: How did the IC50 turn out when `CCOC(=O)N1CCN(C(=O)[C@H](Cc2ccc(CP(=O)(O)O)cc2)NC(=O)c2cc(N3CC[C@H](OC)C3)nc(-c3ccccc3)n2)CC1` [Example 61, 4-[(S)-2-{[6-((S)-3-Methoxy-pyrrolidin-1-yl)-2-phenyl-pyrimidine-4-carbonyl]-amino}-3-(4-phosphonomethyl-phenyl)-propionyl]-piperazine-1-carboxylic acid ethyl ester] was run?
Answer: 7.5 nM
